“Also recorded” adds a separate entry of the source. Marks after values point to notes of the source that are not given here.
Legend:
[1] = system: conscious pigs with heart failure; experiment: Hemodynamic study in conscious pigs with heart failure (serial myocardial infarctions plus intermittent tachycardic pacing); format: in vivo, pig; conditions: for LV End-Diastolic Diameter, change from baseline / LV End-Systolic Diameter, change from baseline / LV Fractional Shortening, change from baseline / Vcf, change from baseline: n = 3; for Cardiac Index, change from baseline / Heart Rate, change from baseline / LV dP/dt, change from baseline / Left Atrial Pressure, change from baseline / Mean Arterial Pressure, change from baseline / Total Peripheral Resistance, change from baseline: n = 4
Protocol: Five farm pigs of either of sex and weighing 34.5±2.5 kg were sedated with ketamine hydrochloride (25 mg/kg, i.m.) and xylazine (6 mg/kg, i.m.). After tracheal intubation, general anesthesia was maintained with isoflurane (1.5-2.0 vol % in oxygen). Using sterile surgical technique, a left thoracotomy was performed at the fifth intercostal space. Catheters made of Tygon tubing (Norton Performance Plastics Co., Akron, Ohio) were implanted in the descending aorta, left and right atria for measurement of pressures. A solid-state miniature pressure gauge (Konigsberg Instruments Inc., Pasadena, Calif.) was implanted in the left ventricular (LV) chamber to obtain LV pressure and the rate of change of LV pressure (LV dP/dt). A flow probe (Transonic System Inc., Ithaca, N.Y.) was placed around the main pulmonary artery for measurement of blood flow. One pair of piezoelectric ultrasonic dimension crystals were implanted on opposing anterior and posterior endocardial regions of the LV to measure the short-axis internal diameter. Proper alignment of the endocardial crystals was achieved during surgical implantation by positioning the crystals so as to obtain a signal with the greatest amplitude and shortest transit time. A pacing lead (model 5069, Medtronic Inc., Minneapolis, Minn.) was attached to the right ventricular free wall, and stainless steel pacing leads were attached to the left atrial appendage. The left circumflex coronary artery was isolated and two hydraulic occluders, made of Tygon tubing, were implanted proximally and distally to the first obtuse marginal branch. The wires and catheters were externalized between the scapulae, the incision was closed in layers, and air was evacuated from the chest cavity.
Hemodynamic recordings were made using a data tape recorder (RD-130TE, TEAC, Montebello, Calif.) and a multiple-channel oscillograph (MT95K2, Astro-Med, West Warwick, R.I.). Aortic and left atrial pressures were measured using strain gauge manometers (Statham Instruments, Oxnard, Calif.), which were calibrated in vitro using a mercury manometer, connected to the fluid-filled catheters. The solid-state LV pressure gauge was cross-calibrated with aortic and left atrial pressure measurements. LV dP/dt was obtained by electronically differentiating the LV pressure signal. Blood flow was measured using a volume flow meter (T208, Transonic System Inc., Ithaca, N.Y.). Mean arterial pressure, left atrial pressures, and pulmonary blood flow (cardiac output) were measured using an amplifier filter. Stroke volume was calculated as the quotient of cardiac output and heart rate. Cardiac output was normalized by body weight to yield cardiac index. LV dimension was measured with an ultrasonic transit-time dimension gauge (Model 203, Triton Technology Inc., San Diego, Calif.). Total peripheral resistance was calculated as the quotient of mean arterial pressure and cardiac output. LV short-axis end-diastolic dimension (EDD) was measured at the beginning of the upstroke of the LV dP/dt signal. LV end-systolic dimension (ESD) was measured at the time of maximum negative dP/dt. The percent shortening of LV internal diameter was calculated as (EDD-ESD)/EDD*100. LV mean velocity of circumferential fiber shortening (Vcf) was calculated from the dimension measurements using the following formula:(EDD-ESD)/EDD/Ejection time (sec^−1). Ejection time was measured as the interval between maximum and minimum LV dP/dt. A cardiotachometer triggered by the LV pressure pulse provided instantaneous and continuous records of heart rate.
Experiments were initiated 10-14 days after surgery, when the pigs were fully recovered from surgery. During the post-operative period, the pigs were introduced to a sling for training. Heart failure was produced by progressive myocardial ischemia induced by two coronary artery occlusions followed by intermittent ventricular pacing.

[2] = system: ET receptor; experiment: Endothelin-1 (ET-1) challenge before and after Compound 1 in conscious pigs with heart failure; format: in vivo, pig
Protocol: Hemodynamic experiments were performed after 2 cycles of tachycardic pacing in the presence of myocardial ischemia injury, after the animal had achieved a stable state of heart failure. During the experiments, the pigs were conscious and quietly restrained in a sling. The test compound is dissolved in saturated NaHCO3 (10% by Vol) and 0.9% saline (90% by Vol) at a concentration of 2 mg/ml, was studied in four conscious pigs with heart failure. A dose of 0.5 mg/kg was injected intravenously over a period of 2 minutes, and hemodynamics were continuously recorded before and 90 minutes following injection of the test compound in all 4 pigs. In two of these pigs, recording continued until 3 hours following injection of the test compound. The vehicle was tested on separate days. The effects of 0.1 to 0.5 μg/kg cumulative bolus doses in 0.1 μg/kg steps of endothelin-1 (Peptide Institute, Inc., Osaka, Japan) were also examined on separate days before and 90 minutes after injection of the test compound in three pigs during development of heart failure to characterize the extent of endothelin block by the test compound. ET-1 was dissolved in 0.1 N NaHCO3 ([…]) and 0.9% saline (95% by Vol) at a concentration of 20 μg/ml.
Hemodynamic experiments were performed after 2 cycles of tachycardic pacing in the presence of myocardial ischemia injury, after the animal had achieved a stable state of heart failure. During the experiments, the pigs were conscious and quietly restrained in a sling. Compound 1, dissolved in saturated NaHCO3 (10% by Vol) and 0.9% saline (90% by Vol) at a concentration of 2 mg/ml, was studied in four conscious pigs with heart failure. A dose of 0.5 mg/kg was injected intravenously over a period of 2 minutes, and hemodynamics were continuously recorded before and 90 minutes following injection of Compound 1 in all 4 pigs. In two of these pigs, recording continued until 3 hour following injection of Compound 1. The vehicle was tested on separate days. The effects of 0.1 to 0.5 μg/kg cumulative bolus doses in 0.1 μg/kg steps of endothelin-1 (Peptide Institute, Inc., Osaka, Japan) were also examined on separate days before and 90 minutes after injection of Compound 1 in three pigs during development of heart failure to characterize the extent of ET block by Compound 1. ET-1was dissolved in 0.1 N NaHCO3 ([…]) and 0.9% saline (95% by Vol) at a concentration of 20 μg/ml. For comparative purpose, the effects of intravenous injection of Compound 2 (enalaprilat), at doses of 1 mg/kg and 4 mg/kg, were studied on different days in three of the pigs that were used to study […] and in one additional pig. Compound 2 was dissolved in 0.9% saline.

[3] = 0.5 mg/kg i.v., 60 minutes after administration
[4] = Compound 1 0.5 mg/kg i.v., 15 min
[5] = Compound 1 0.5 mg/kg i.v., 60 min
[6] = ET-1 cumulative i.v. bolus 0.1 to 0.5 μg/kg, without Compound 1

CCCCc1ccc2c(n1)[C@@H](c1ccc(OC)cc1CC(C)C(=O)O)[C@H](C(=O)O)[C@H]2c1ccc2c(c1)OCO2 (relative stereo) [Compound 1, (+)-(5S*, 6R*, 7R*)-2-butyl-6-carboxy-7-[2-(2-carboxypropyl)-4-methoxyphenyl]-5-(3,4-methylenedioxyphenyl)cyclopenteno[1,2-b]pyridine]
Vcf, increase ([1]; 0.5 mg/kg i.v.): 12±2%
effect on LV dP/dt (in words) ([1]; 0.5 mg/kg i.v.): not affected
effect on LV end-diastolic diameter (in words) ([1]; 0.5 mg/kg i.v.): not affected
effect on LV fraction shortening (in words) ([1]; 0.5 mg/kg i.v.): not affected
effect on LV systolic diameter (in words) ([1]; 0.5 mg/kg i.v.): not affected
effect on elevated vascular resistance of heart failure (in words) ([1]; 0.5 mg/kg i.v.): complete restoration of the elevated vascular resistance of heart failure back to pre-heart failure control values; also recorded: reduced the elevated vascular resistance
effect on myocardial contractility (in words) ([1]; 0.5 mg/kg i.v.): did not affect myocardial contractility
heart rate, increase (in words) ([1]; 0.5 mg/kg i.v.): not statistically significant
left atrial pressure, decrease (in words) ([1]; 0.5 mg/kg i.v.): not statistically significant
cardiac index, increase [1, 3]: 17±4%
mean arterial pressure, decrease [1, 3]: 10±2%
total peripheral resistance, decrease [1, 3]: 22±3%
reduction in total peripheral resistance compared with Compound 2 (1 mg/kg or 4 mg/kg i.v.) ([1]; Compound 1 0.5 mg/kg i.v.): greater than that induced by either dose of Compound 2
LV End-Diastolic Diameter, change from baseline [1, 4]: +0.1 ± 0.2 mm
LV End-Systolic Diameter, change from baseline [1, 4]: −0.3 ± 0.3 mm
LV Fractional Shortening, change from baseline [1, 4]: +0.6 ± 0.2%
Vcf, change from baseline [1, 4]: 0.05 ± 0.01* sec^−1
Cardiac Index, change from baseline [1, 4]: +14 ± 2 ml/min/kg
Heart Rate, change from baseline [1, 4]: +5 ± 5 beat/min
LV dP/dt, change from baseline [1, 4]: +25 ± 40 mmHg/sec
Left Atrial Pressure, change from baseline [1, 4]: −4 ± 2 mmHg
Mean Arterial Pressure, change from baseline [1, 4]: −10 ± 1 mmHg
Total Peripheral Resistance, change from baseline [1, 4]: −0.25 ± 0.03 mmHg/ml/min/kg
LV End-Diastolic Diameter, change from baseline [1, 5]: +0.2 ± 0.3 mm
LV End-Systolic Diameter, change from baseline [1, 5]: −0.2 ± 0.3 mm
LV Fractional Shortening, change from baseline [1, 5]: +0.7 ± 0.2%
Vcf, change from baseline [1, 5]: +0.07 ± 0.02* sec^−1
Cardiac Index, change from baseline [1, 5]: +13 ± 2 ml/min/kg
Heart Rate, change from baseline [1, 5]: +7 ± 5 beat/min
LV dP/dt, change from baseline [1, 5]: 56 ± 65 mmHg/sec
Left Atrial Pressure, change from baseline [1, 5]: −2 ± 2 mmHg
Mean Arterial Pressure, change from baseline [1, 5]: −8 ± 1 mmHg
Total Peripheral Resistance, change from baseline [1, 5]: −0.24 ± 0.05 mmHg/ml/min/kg
hemodynamic responses to ET-1 after administration of the antagonist ([2]; Compound 1 0.5 mg/kg i.v., ET-1 cumulative i.v. bolus, total dose 0.5 μg/kg): markedly attenuated

C[C@H](N[C@@H](CCc1ccccc1)C(=O)O)C(=O)N1CCC[C@H]1C(=O)O [Compound 2, enalaprilat, reference compound]
effect on total peripheral resistance (in words) ([1]; 1 mg/kg or 4 mg/kg i.v., throughout 90-minute observation period, not dose-dependent): significantly reduce the total peripheral resistance

CC[C@H](C)[C@H](NC(=O)[C@H](CC(=O)O)NC(=O)[C@H](CC(C)C)NC(=O)[C@H](Cc1c[nH]cn1)NC(=O)[C@@H]1CSSC[C@H](N)C(=O)N[C@@H](CO)C(=O)N[C@H]2CSSC[C@H](NC(=O)[C@H](CCC(=O)O)NC(=O)[C@H](CCCCN)NC(=O)[C@H](CC(=O)O)NC(=O)[C@H](CCSC)NC(=O)[C@H](CC(C)C)NC(=O)[C@H](CO)NC(=O)[C@H](CO)NC2=O)C(=O)N[C@@H](C(C)C)C(=O)N[C@@H](Cc2ccc(O)cc2)C(=O)N[C@@H](Cc2ccccc2)C(=O)N1)C(=O)N[C@H](C(=O)N[C@@H](Cc1c[nH]c2ccccc12)C(=O)O)[C@@H](C)CC [ET-1, endothelin-1]
effect of ET-1 on heart rate [2, 6]: decreased, but not dose-dependently
effect of ET-1 on mean arterial pressure [2, 6]: significant dose-dependent increases
effect of ET-1 on mean left atrial pressure [2, 6]: significant dose-dependent increases
effect of ET-1 on total peripheral resistance [2, 6]: significant dose-dependent increases

Source: patent publication US6380195B1, “Method of treating heart failure with endothelin antagonists” (Banyu Pharmaceutical Co., Ltd., priority 1996, dated 2002)
